# Laboratory results published in patent US11382892B2, “Method for administration” (Hoffmann-La Roche Inc., priority 2012, dated 2022).
# Tests used:
# [1] = Toxicity summary (body weight, mortality) in SJSA1 xenograft study; assay type: in vivo
# Excerpt: In the examples below, weight loss was graphically represented as percent change in mean group body weight, using the formula: ((W−W0)/W0)×100, where ‘W’ represents mean body weight of the treated group at a particular day, and ‘W0’ represents mean body weight of the same treated group at initiation of treatment.
# Female athymic Crl:NU-Foxn1nu mice (10/group), obtained from Charles River Laboratories (Wilmington, Del.) were utilized when they were approximately 10-12 weeks of age and weighed 23-25 g. The health of the mice was assessed daily by gross observation and analyses of blood samples taken from sentinel animals housed on shared shelf racks. All animals were allowed to acclimate and recover from any shipping-related stress for a minimum of 72 hours prior to experimental use. Autoclaved water and irradiated food (5058-ms Pico Lab mouse chow, Purina Mills, Richmond, Ind.) were provided ad libitum, and the animals were maintained on a 12 hour light and dark cycle. Cages, bedding and water bottles were autoclaved before use and changed weekly. All animal experiments were conducted in accordance with the Guide for the Care and Use of Laboratory Animals, local regulations, and protocols approved by the Roche Animal Care and Use Committee in an AAALAC accredited facility.
# Treatment duration was 2-4 weeks. Dates of tumor implant, treatment initiation (study start date), and termination of treatment (study end date) can be found in Table 6 below. The starting tumor volume for this study was about 220 mm^3. Tumor volumes and animal body weights were measured three times per week and animals were monitored for clinical signs daily.
# solid tumors = assay: On-going Phase I studies in solid tumors; assay type: in vivo, human
# Excerpt: Thus, a 3-5 daily treatment schedule is expected to provide the best benefit ratio taking into consideration efficacy and toxicity.
# [2] = 100 mg/kg QD po 2 on/12 off x 2
# [3] = 200 mg/kg (two 100 mg/kg doses 8 hr apart) 1x/wk po
smiles,measurement,setting,value
"COc1cc(C(=O)O)ccc1NC(=O)[C@@H]1N[C@@H](CC(C)(C)C)[C@](C#N)(c2ccc(Cl)cc2F)[C@H]1c1cccc(Cl)c1F [Compound A, 4-{[(2R,3S,4R,5S)-4-(4-Chloro-2-fluoro-phenyl)-3-(3-chloro-2-fluoro-phenyl)-4-cyano-5-(2,2-dimethyl-propyl)-pyrrolidine-2-carbonyl]-amino}-3-methoxy-benzoic acid]",# of animals ≥20% BWL,[1]; 7.5 mg/kg QD po,0
same,% Change in Body Weight at end of Study Day 29,[1]; 7.5 mg/kg QD po,9.0%
same,Maximum % Weight gain,[1]; 7.5 mg/kg QD po,9.0%
same,Maximum % Weight loss,[1]; 7.5 mg/kg QD po,−0.3%
same,Mortality,[1]; 7.5 mg/kg QD po,0
same,# of animals ≥20% BWL,[1]; 15 mg/kg QD po,0
same,% Change in Body Weight at end of Study Day 29,[1]; 15 mg/kg QD po,5.9%
same,Maximum % Weight gain,[1]; 15 mg/kg QD po,5.9%
same,Maximum % Weight loss,[1]; 15 mg/kg QD po,−2.2%
same,Mortality,[1]; 15 mg/kg QD po,0
same,# of animals ≥20% BWL,[1]; 20 mg/kg QD po 20 on/8 off,0
same,% Change in Body Weight at end of Study Day 29,[1]; 20 mg/kg QD po 20 on/8 off,1.2%
same,Maximum % Weight gain,[1]; 20 mg/kg QD po 20 on/8 off,1.2%
same,Maximum % Weight loss,[1]; 20 mg/kg QD po 20 on/8 off,−3.9%
same,Mortality,[1]; 20 mg/kg QD po 20 on/8 off,0
same,# of animals ≥20% BWL,[1]; 30 mg/kg QD po,0
same,% Change in Body Weight at end of Study Day 29,[1]; 30 mg/kg QD po,1.3%
same,Maximum % Weight gain,[1]; 30 mg/kg QD po,1.3%
same,Maximum % Weight loss,[1]; 30 mg/kg QD po,−0.2%
same,Mortality,[1]; 30 mg/kg QD po,0
same,# of animals ≥20% BWL,[1]; 50 mg/kg 1x/wk po,0
same,% Change in Body Weight at end of Study Day 29,[1]; 50 mg/kg 1x/wk po,6.6%
same,Maximum % Weight gain,[1]; 50 mg/kg 1x/wk po,6.6%
same,Maximum % Weight loss,[1]; 50 mg/kg 1x/wk po,−0.3%
same,Mortality,[1]; 50 mg/kg 1x/wk po,0
same,# of animals ≥20% BWL,[1]; 50 mg/kg QD po 2 on/5 off x 4,0
same,% Change in Body Weight at end of Study Day 29,[1]; 50 mg/kg QD po 2 on/5 off x 4,7.1%
same,Maximum % Weight gain,[1]; 50 mg/kg QD po 2 on/5 off x 4,7.1%
same,Maximum % Weight loss,[1]; 50 mg/kg QD po 2 on/5 off x 4,−0.8%
same,Mortality,[1]; 50 mg/kg QD po 2 on/5 off x 4,0
same,# of animals ≥20% BWL,[1]; 50 mg/kg QD po 4 on/10 off x 2,0
same,% Change in Body Weight at end of Study Day 29,[1]; 50 mg/kg QD po 4 on/10 off x 2,1.2%
same,Maximum % Weight gain,[1]; 50 mg/kg QD po 4 on/10 off x 2,1.2%
same,Maximum % Weight loss,[1]; 50 mg/kg QD po 4 on/10 off x 2,−1.1%
same,Mortality,[1]; 50 mg/kg QD po 4 on/10 off x 2,0
same,# of animals ≥20% BWL,[1]; 80 mg/kg QD po 5 on/23 off,0
same,% Change in Body Weight at end of Study Day 29,[1]; 80 mg/kg QD po 5 on/23 off,8.0%
same,Maximum % Weight gain,[1]; 80 mg/kg QD po 5 on/23 off,8.0%
same,Maximum % Weight loss,[1]; 80 mg/kg QD po 5 on/23 off,0.3%
same,Mortality,[1]; 80 mg/kg QD po 5 on/23 off,0
same,# of animals ≥20% BWL,[1]; 100 mg/kg 1x/wk po,0
same,% Change in Body Weight at end of Study Day 29,[1]; 100 mg/kg 1x/wk po,9.1%
same,Maximum % Weight gain,[1]; 100 mg/kg 1x/wk po,9.1%
same,Maximum % Weight loss,[1]; 100 mg/kg 1x/wk po,4.2%
same,Mortality,[1]; 100 mg/kg 1x/wk po,0
same,# of animals ≥20% BWL,[1]; 100 mg/kg QD po 2 on/5 off x 4,0
same,% Change in Body Weight at end of Study Day 29,[1]; 100 mg/kg QD po 2 on/5 off x 4,1.3%
same,Maximum % Weight gain,[1]; 100 mg/kg QD po 2 on/5 off x 4,1.3%
same,Maximum % Weight loss,[1]; 100 mg/kg QD po 2 on/5 off x 4,−2.8%
same,Mortality,[1]; 100 mg/kg QD po 2 on/5 off x 4,0
same,# of animals ≥20% BWL,[1]; [2],0
same,% Change in Body Weight at end of Study Day 29,[1]; [2],0.9%
same,Maximum % Weight gain,[1]; [2],1.8%
same,Maximum % Weight loss,[1]; [2],−0.6%
same,Mortality,[1]; [2],0
same,# of animals ≥20% BWL,[1]; [3],0
same,% Change in Body Weight at end of Study Day 29,[1]; [3],6.3%
same,Maximum % Weight gain,[1]; [3],6.3%
same,Maximum % Weight loss,[1]; [3],1.9%
same,Mortality,[1]; [3],0
same,toxicity of longer schedules,solid tumors; longer schedules,delayed thrombocytopenia
same,continuous exposure after which maximal apoptosis occurs,solid tumors; solid tumors,about 48 hours
